# Measured values taken from patent publication US20240336608A1, “IL4I1 INHIBITORS AND METHODS OF USE” (Merck Sharp & Dohme LLC, priority 2023, published 2024).
# Molecular target: T1, recombinant IL4I1 (Homo sapiens, UniProt Q96RQ9)
# T1 construct: purchased R&D Systems 5684-AO-020
# T1 sequence (Q96RQ9 22-567): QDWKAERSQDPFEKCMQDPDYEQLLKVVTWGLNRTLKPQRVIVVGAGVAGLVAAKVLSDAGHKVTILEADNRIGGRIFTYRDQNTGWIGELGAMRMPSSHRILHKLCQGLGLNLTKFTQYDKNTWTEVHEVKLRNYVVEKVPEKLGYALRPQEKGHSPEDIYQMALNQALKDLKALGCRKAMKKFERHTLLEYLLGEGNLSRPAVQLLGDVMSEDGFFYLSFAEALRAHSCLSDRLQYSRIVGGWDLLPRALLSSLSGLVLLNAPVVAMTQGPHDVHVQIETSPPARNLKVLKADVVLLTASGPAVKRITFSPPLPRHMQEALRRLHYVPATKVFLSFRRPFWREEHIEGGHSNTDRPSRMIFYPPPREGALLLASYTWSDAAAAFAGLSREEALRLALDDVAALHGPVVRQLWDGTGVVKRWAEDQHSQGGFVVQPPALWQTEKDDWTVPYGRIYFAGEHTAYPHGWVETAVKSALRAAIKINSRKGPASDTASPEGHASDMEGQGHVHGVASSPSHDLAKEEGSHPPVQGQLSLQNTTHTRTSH
# Test: IL4I1 Enzymatic Assay (Amplex Red/HRP coupled detection of H2O2, fluorescence)
# Assay type: biochemical
# Conditions: 1 nM recombinant IL4I1; four-hour pre-incubation with compound; 1 mM each Phe, Tyr, Trp; ten-point titration
# In short: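 H2O2 output was coupled to resorufin fluorescence (ex 544/em 590) via 0.05 mM Amplex Red and 1 U/mL HRP. Substrate: Phe, Tyr, Trp at 1 mM each; enzyme 1 nM, 4 h compound pre-incubation, 120 min reaction, pH 7.0 Hepes. EC50 by nonlinear four-parameter regression, 1:3 ten-point titration.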
row,Compound,EC50
1,"O=C(NCc1nnc(-c2ccccc2)s1)c1cn([C@@H]2C[C@H]2CO)nn1 (single isomer, unassigned) [Example 141, Trans-1-(2-(hydroxymethyl)cyclopropyl)-N-((5-phenyl-1,3,4-thiadiazol-2-yl)methyl)-1H-1,2,3-triazole-4-carboxamide]",5 nM
2,"CC(C)(C)c1cc(C(=O)NCc2nnc(-c3ccccc3)s2)[nH]n1 [Example 9, 3-(tert-butyl)-N-((5-phenyl-1,3,4-thiadiazol-2-yl)methyl)-1H-pyrazole-5-carboxamide]",480 nM
3,"CC(C)(C)OC(=O)N1CC(n2cc(C(=O)NCc3nnc(-c4ccccc4)s3)nn2)C1 [Example 69, tert-butyl 3-(4-(((5-phenyl-1,3,4-thiadiazol-2-yl)methyl)carbamoyl)-1H-1,2,3-triazol-1-yl)azetidine-1-carboxylate]",9 nM
4,"Cc1ccc(-n2cc(C(=O)NCc3cc(-c4cccc(F)c4)no3)nn2)c(C)n1 [Example 223, 1-(2,6-dimethylpyridin-3-yl)-N-{[3-(3-fluorophenyl)-1,2-oxazol-5-yl]methyl}-1H-1,2,3-triazole-4-carboxamide]",58 nM
5,"O=C(NCc1nnc(-c2ccccc2)s1)c1cn(CC(O)C2CC2)nn1 (stereo not shown) [Example 181, 1-(2-cyclopropyl-2-hydroxyethyl)-N-((5-phenyl-1,3,4-thiadiazol-2-yl)methyl)-1H-1,2,3-triazole-4-carboxamide]",239 nM
6,"CN1CC(n2cc(C(=O)NCc3nnc(-c4ccccc4)s3)nn2)CC1=O (stereo not shown) [Example 183, 1-(1-methyl-5-oxopyrrolidin-3-yl)-N-((5-phenyl-1,3,4-thiadiazol-2-yl)methyl)-1H-1,2,3-triazole-4-carboxamide]",139 nM
7,"O=C(NCc1nnc(-c2ccccc2)s1)c1cc2c(s1)CCC2 [Example 6, N-[(5-phenyl-1,3,4-thiadiazol-2-yl)methyl]-5,6-dihydro-4H-cyclopenta[b]thiophene-2-carboxamide]",62 nM
8,"Cn1nnc(C(=O)NCc2nnc(-c3ccccc3)s2)c1F [Example 289, 5-fluoro-1-methyl-N-((5-phenyl-1,3,4-thiadiazol-2-yl)methyl)-1H-1,2,3-triazole-4-carboxamide]",301 nM
9,"O=C(NCc1nnc(-c2ccccc2)s1)c1cn(C2CCCCC2)nn1 [Example 95, 1-cyclohexyl-N-((5-phenyl-1,3,4-thiadiazol-2-yl)methyl)-1H-1,2,3-triazole-4-carboxamide]",189 nM
10,"Cc1ncc(-n2cc(C(=O)NCc3nnc(-c4ccccc4)s3)nn2)c(C)n1 [Example 280, 1-(2,4-dimethylpyrimidin-5-yl)-N-((5-phenyl-1,3,4-thiadiazol-2-yl)methyl)-1H-1,2,3-triazole-4-carboxamide]",859 nM
11,"O=C(NCc1nnc(-c2ccccc2)s1)c1cn(C2CS(=O)(=O)C2)nn1 [Example 307, 1-(1,1-dioxidothietan-3-yl)-N-((5-phenyl-1,3,4-thiadiazol-2-yl)methyl)-1H-1,2,3-triazole-4-carboxamide]",73 nM
12,"O=C(NCc1nnc(-c2ccccc2)s1)c1noc2ccccc12 [Example 215, N-[(5-phenyl-1,3,4-thiadiazol-2-yl)methyl]-1,2-benzoxazole-3-carboxamide]",127 nM
13,"Cc1ccc(-n2cc(C(=O)NCc3cc(-c4ccncc4)on3)nn2)c(C)n1 [Example 266, 1-(2,6-dimethylpyridin-3-yl)-N-((5-(pyridin-4-yl)isoxazol-3-yl)methyl)-1H-1,2,3-triazole-4-carboxamide]",26 nM
14,"Cc1ccc(-n2cc(C(=O)NCc3nnc(-c4ccc(F)cc4F)s3)nn2)c(C)n1 [Example 105, N-((5-(2,4-difluorophenyl)-1,3,4-thiadiazol-2-yl)methyl)-1-(2,6-dimethylpyridin-3-yl)-1H-1,2,3-triazole-4-carboxamide]",909 nM
15,"CC(=O)N1CC(n2cc(C(=O)NCc3nnc(-c4ccccc4)s3)nn2)C1 [Example 102, 1-(1-acetylazetidin-3-yl)-N-((5-phenyl-1,3,4-thiadiazol-2-yl)methyl)-1H-1,2,3-triazole-4-carboxamide]",296 nM
16,"Cn1cc(C(=O)NCc2cc(-c3ccccc3)no2)nn1 [Example 218, 1-methyl-N-[(3-phenyl-1,2-oxazol-5-yl)methyl]-1H-1,2,3-triazole-4-carboxamide]",184 nM
17,"O=C(NCc1ccc(-c2ccccc2)nn1)c1cn(CC(F)F)nn1 [Example 293, 1-(2,2-difluoroethyl)-N-((6-phenylpyridazin-3-yl)methyl)-1H-1,2,3-triazole-4-carboxamide]",21 nM
18,"Cc1onc(C(=O)NCc2nnc(-c3ccccc3)s2)c1C [Example 24, 4,5-dimethyl-N-[(5-phenyl-1,3,4-thiadiazol-2-yl)methyl]isoxazole-3-carboxamide]",93 nM
19,"O=C(NCc1nnc(-c2ccccc2)s1)c1cn(Cc2ccno2)nn1 [Example 154, 1-(isoxazol-5-ylmethyl)-N-((5-phenyl-1,3,4-thiadiazol-2-yl)methyl)-1H-1,2,3-triazole-4-carboxamide]",49 nM
20,"O=C(NCc1nnc(-c2ccccc2)s1)c1cn(CC2CCCO2)nn1 (stereo not shown) [Example 79, N-((5-phenyl-1,3,4-thiadiazol-2-yl)methyl)-1-((tetrahydrofuran-2-yl)methyl)-1H-1,2,3-triazole-4-carboxamide]",110 nM
21,"O=C(NCc1nnc(-c2ccccc2)s1)c1cn(C2CC2)nn1 [Example 268, 1-cyclopropyl-N-((5-phenyl-1,3,4-thiadiazol-2-yl)methyl)-1H-1,2,3-triazole-4-carboxamide]",8 nM
22,"Cn1cc(C(=O)NCc2nnc(-c3ccc(Cl)cc3)s2)nn1 [Example 296, N-((5-(4-chlorophenyl)-1,3,4-thiadiazol-2-yl)methyl)-1-methyl-1H-1,2,3-triazole-4-carboxamide]",418 nM
23,"Cn1cc(C(=O)NCc2nnc(-c3ccc(F)cc3)s2)nn1 [Example 219, N-{[5-(4-fluorophenyl)-1,3,4-thiadiazol-2-yl]methyl}-1-methyl-1H-1,2,3-triazole-4-carboxamide]",154 nM
24,"O=C(NCc1nnc(-c2ccccc2)s1)c1nnn2ccccc12 [Example 239, N-((5-phenyl-1,3,4-thiadiazol-2-yl)methyl)-[1,2,3]triazolo[1,5-a]pyridine-3-carboxamide]",591 nM
25,"CC1(n2cc(C(=O)NCc3nnc(-c4ccccc4)s3)nn2)CCC1 [Example 124, 1-(1-methylcyclobutyl)-N-((5-phenyl-1,3,4-thiadiazol-2-yl)methyl)-1H-1,2,3-triazole-4-carboxamide]",23 nM
26,"O=C(NCc1nnc(-c2ccccc2)s1)c1c[nH]c(C2CC2)n1 [Example 11, 2-cyclopropyl-N-((5-phenyl-1,3,4-thiadiazol-2-yl)methyl)-1H-imidazole-4-carboxamide]",265 nM
27,"C[C@H](C(F)F)n1cc(C(=O)NCc2nnc(-c3ccccc3)s2)nn1 [Example 168, (R)-1-(1,1-difluoropropan-2-yl)-N-((5-phenyl-1,3,4-thiadiazol-2-yl)methyl)-1H-1,2,3-triazole-4-carboxamide]",7 nM
28,"Cc1nonc1C(=O)NCc1nnc(-c2ccccc2)s1 [Example 55, 4-methyl-N-[(5-phenyl-1,3,4-thiadiazol-2-yl)methyl]-1,2,5-oxadiazole-3-carboxamide]",276 nM
